These results are taken from the Kinase Knowledgebase extract (Sharma et al. 2016).

One test addresses CDK2 (human) (UniProt P24941). Nature of the test: Enzyme Assay. The following applies: for activity: 10.0 µM.
The target of a further test is MAPK14 (human) (UniProt Q16539). Nature of the test: Enzyme Assay. The settings on record: for activity: 10.0 µM.
In another test the target is PIK3CA (human) (UniProt P42336). Nature of the test: Enzyme Assay. The following applies: 10.0 µM.
In test [1] the test system is PIK3CA (human), P42336 [C420R]. Nature of the test: Enzyme Assay. The following applies: 10.0 µM.
Test [2] deals with PIK3CA (human), P42336 [E542K]. Nature of the test: Enzyme Assay. The following applies: 10.0 µM.
The test system of test [3] is PIK3CA (human), P42336 [E545A]. Put plainly: Enzyme Assay. The settings on record: 10.0 µM.
In test [4] the test system is PIK3CA (human), P42336 [E545K]. Put plainly: Enzyme Assay. The following applies: 10.0 µM.
Test [5] has as its system PIK3CA (human), P42336 [H1047L]. Nature of the test: Enzyme Assay. The following applies: 10.0 µM.
In test [6] the test system is PIK3CA (human), P42336 [H1047Y]. Put plainly: Enzyme Assay. The settings on record: 10.0 µM.
In test [7] the test system is PIK3CA (human), P42336 [I800L]. Put plainly: Enzyme Assay. The following applies: 10.0 µM.
Test [8] has as its system PIK3CA (human), P42336 [M1043I]. Put plainly: Enzyme Assay. The following applies: 10.0 µM.
Test [9] has as its system PIK3CA (human), P42336 [Q546K]. Nature of the test: Enzyme Assay. The settings on record: 10.0 µM.
Another test deals with PIK3CB (Human) (UniProt P42338). Put plainly: Enzyme Assay. The following applies: 10.0 µM.
The next test has as its target PIK3CD (Human) (UniProt O00329). Nature of the test: Enzyme Assay. The settings on record: 10.0 µM.
Another test has as its target PIK3CG (human) (UniProt P48736). Nature of the test: Enzyme Assay. The settings on record: 10.0 µM.
The next test addresses ROCK2 (human) (UniProt O75116). Nature of the test: Enzyme Assay. The following applies: 10.0 µM.
In the next test the target is EGFR (human) (UniProt P00533). The settings on record: for activity: 10.0 µM.
Test [10] deals with EGFR (human), P00533 [E746-A750del]. The following applies: 10.0 µM.
For test [11], the system named is EGFR (human), P00533 [G719C]. The following applies: 10.0 µM.
Test [12] deals with EGFR (human), P00533 [G719S]. The following applies: 10.0 µM.
Test [13] has as its system EGFR (human), P00533 [L747-E749del, A750P]. The settings on record: 10.0 µM.
In test [14] the test system is EGFR (human), P00533 [L747-S752del, P753S]. The settings on record: 10.0 µM.
In test [15] the test system is EGFR (human), P00533 [L747-T751del,Sins]. The settings on record: 10.0 µM.
Test [16] concerns EGFR (human), P00533 [L858R]. The settings on record: 10.0 µM.
Test [17] deals with EGFR (Human), P00533 [T790M/L858R]. The settings on record: 10.0 µM.
Test [18] has as its system EGFR (human), P00533 [L861Q]. The settings on record: 10.0 µM.
Test [19] deals with EGFR (human), P00533 [S752-I759del]. The following applies: 10.0 µM.
Test [20] has as its system EGFR (human), P00533 [T790M]. The following applies: 10.0 µM.

MAPK14 (human), sequence (Q16539 whole entry, looked up): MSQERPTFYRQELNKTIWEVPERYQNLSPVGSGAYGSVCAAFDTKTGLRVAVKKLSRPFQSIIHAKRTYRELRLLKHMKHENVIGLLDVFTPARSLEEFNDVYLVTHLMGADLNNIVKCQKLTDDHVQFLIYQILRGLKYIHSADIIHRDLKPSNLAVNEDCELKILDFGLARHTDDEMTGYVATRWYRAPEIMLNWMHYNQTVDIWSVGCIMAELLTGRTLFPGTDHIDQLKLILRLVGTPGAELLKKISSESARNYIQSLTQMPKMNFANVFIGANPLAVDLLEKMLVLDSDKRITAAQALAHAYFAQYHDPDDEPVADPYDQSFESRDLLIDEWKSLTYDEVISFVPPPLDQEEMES
PIK3CA (human), P42336 [I800L], sequence (P42336 whole entry I800L, looked up): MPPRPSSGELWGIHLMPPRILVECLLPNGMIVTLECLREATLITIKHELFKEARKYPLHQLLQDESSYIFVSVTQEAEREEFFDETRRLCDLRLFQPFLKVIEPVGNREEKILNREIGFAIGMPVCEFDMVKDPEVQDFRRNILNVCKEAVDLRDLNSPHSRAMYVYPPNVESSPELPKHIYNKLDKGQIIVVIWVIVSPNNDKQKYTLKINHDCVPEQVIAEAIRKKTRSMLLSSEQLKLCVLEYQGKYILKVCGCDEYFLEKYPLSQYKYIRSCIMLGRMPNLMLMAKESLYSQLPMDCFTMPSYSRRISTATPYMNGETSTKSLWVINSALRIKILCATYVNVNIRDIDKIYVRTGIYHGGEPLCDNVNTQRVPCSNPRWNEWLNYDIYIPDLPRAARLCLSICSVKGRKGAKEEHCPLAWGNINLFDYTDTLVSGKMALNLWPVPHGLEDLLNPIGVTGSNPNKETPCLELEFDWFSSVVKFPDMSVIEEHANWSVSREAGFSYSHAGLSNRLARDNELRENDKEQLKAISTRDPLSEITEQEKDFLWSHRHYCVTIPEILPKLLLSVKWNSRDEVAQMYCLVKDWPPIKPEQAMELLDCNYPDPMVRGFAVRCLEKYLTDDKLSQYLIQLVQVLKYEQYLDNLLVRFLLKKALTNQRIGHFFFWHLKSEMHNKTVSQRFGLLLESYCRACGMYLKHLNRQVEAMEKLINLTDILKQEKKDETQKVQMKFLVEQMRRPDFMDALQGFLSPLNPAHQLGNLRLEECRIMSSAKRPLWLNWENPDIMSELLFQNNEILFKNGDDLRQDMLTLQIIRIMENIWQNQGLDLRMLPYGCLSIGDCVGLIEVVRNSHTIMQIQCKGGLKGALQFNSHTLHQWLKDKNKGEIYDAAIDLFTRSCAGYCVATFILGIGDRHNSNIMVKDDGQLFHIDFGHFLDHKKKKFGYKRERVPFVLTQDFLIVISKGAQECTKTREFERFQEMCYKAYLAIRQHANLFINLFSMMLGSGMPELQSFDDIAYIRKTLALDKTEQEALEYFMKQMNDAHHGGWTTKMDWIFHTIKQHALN
PIK3CA (human), P42336 [E542K], sequence (P42336 whole entry E542K, looked up): as the sequence (P42336 whole entry I800L, looked up) above, with E542K, L800I counted along it
PIK3CA (human), sequence (P42336 whole entry, looked up): as the sequence (P42336 whole entry I800L, looked up) above, with L800I counted along it
PIK3CD (Human), sequence (O00329 whole entry, looked up): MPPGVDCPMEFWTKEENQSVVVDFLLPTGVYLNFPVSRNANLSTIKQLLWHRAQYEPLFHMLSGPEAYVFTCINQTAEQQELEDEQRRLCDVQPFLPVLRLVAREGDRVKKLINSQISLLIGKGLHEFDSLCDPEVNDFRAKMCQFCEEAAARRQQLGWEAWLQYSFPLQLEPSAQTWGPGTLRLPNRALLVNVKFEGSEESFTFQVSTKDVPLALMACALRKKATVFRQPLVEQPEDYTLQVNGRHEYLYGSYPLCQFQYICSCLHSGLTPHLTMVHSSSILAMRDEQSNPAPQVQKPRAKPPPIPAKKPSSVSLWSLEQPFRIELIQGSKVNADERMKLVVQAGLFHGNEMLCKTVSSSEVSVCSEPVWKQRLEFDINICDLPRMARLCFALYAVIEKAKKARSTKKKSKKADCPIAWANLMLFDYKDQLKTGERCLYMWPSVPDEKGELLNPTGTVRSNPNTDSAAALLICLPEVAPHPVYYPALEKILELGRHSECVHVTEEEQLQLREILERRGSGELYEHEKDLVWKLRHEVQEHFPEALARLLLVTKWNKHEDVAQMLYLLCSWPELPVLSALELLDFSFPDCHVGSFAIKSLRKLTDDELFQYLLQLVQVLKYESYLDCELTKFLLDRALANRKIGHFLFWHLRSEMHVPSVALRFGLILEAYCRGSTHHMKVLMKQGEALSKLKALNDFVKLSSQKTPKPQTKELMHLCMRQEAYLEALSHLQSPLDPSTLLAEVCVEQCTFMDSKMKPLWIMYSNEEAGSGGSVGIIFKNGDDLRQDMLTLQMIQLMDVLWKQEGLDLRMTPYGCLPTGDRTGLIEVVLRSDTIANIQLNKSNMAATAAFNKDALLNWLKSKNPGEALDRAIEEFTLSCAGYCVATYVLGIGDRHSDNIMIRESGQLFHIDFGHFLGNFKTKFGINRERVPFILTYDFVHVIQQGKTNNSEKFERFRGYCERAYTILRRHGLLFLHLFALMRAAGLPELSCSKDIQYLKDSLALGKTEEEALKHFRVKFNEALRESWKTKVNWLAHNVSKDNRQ

As for `Cc1ccc(NC(=O)c2cccc(C(C)(C)C#N)c2)cc1Nc1ccc2ncn(C)c(=O)c2c1`, the activity at CDK2 (human) is 100%; at MAPK14 (human), 0%; on PIK3CA (human) it was 100%; in test [1], 100%; in [2] it was 100%; in [3], 89%. Moreover, the activity in [4] was 100%; in test [5], 100%; in test [6] it was 100%; in test [7] it was 100%; in [8], 89%; in [9] it was 88%. Also, the activity on PIK3CB (Human) was 100%; on PIK3CD (Human), 99%; at PIK3CG (human), 99%; on ROCK2 (human), 80%; at EGFR (human), 37%; in test [10] it was 15%. Besides, the activity in [11] stood at 49%; in test [12], 37%; in test [13], 11%; in [14] it was 19%; in test [15], 14%; in test [16], 48%. In addition, the activity in [17] is 99%; in [18], 34%; in test [19], 17%; in test [20], 79%.
For the molecule `O=C(Nc1ccc(OC(F)(F)F)cc1)c1sccc1NCc1ccnc2ccccc12`, the IC50 at CDK2 (human) and against EGFR (human) was over 10 µM throughout.
As to `COc1cc2c(Nc3ccc(NC(=O)c4ccccc4)cc3)ncnc2cc1OCCCN1CCOCC1`, the activity on CDK2 (human) stood at 82%; on MAPK14 (human), 100%; on PIK3CA (human), 100%; in test [1], 68%; in test [2], 100%; in test [3] it was 19%. The activity in test [4] was 98%; in [5] it was 99%; in test [6], 24%; in test [7] it was 100%; in test [8], 99%; in [9], 17%. The activity on PIK3CB (Human) is 81%; on PIK3CD (Human), 100%; on PIK3CG (human), 100%; at ROCK2 (human), 34%; on EGFR (human) it was 0%; in test [10], 36%. The activity in [11] is 0%; in test [12], 0%; in test [13], 22%; in [14], 41%; in [15] it was 26%; in [16] it was 8%. Also, the activity in [17] is 85%; in test [18] it was 6%; in test [19] it was 14%; in test [20], 42%.
Molecule `Cc1csc(-c2nnc(Nc3ccc(Oc4ncccc4-c4ccnc(N)n4)cc3)c3ccccc23)c1` came in with an IC50 on MAPK14 (human) of 0.053 µM.
Regarding `Cc1ccc(C(=O)Nc2cccc(C(F)(F)F)c2)cc1Nc1nc(-c2cccnc2)nc2c1cnn2C`, the IC50 at EGFR (human) is over 10 µM.

One may read the IC50 as the midpoint of a concentration-inhibition curve. A low value points to greater potency in that assay.
